# Laboratory results as given in patent US4100346A, “Certain 7(o-amino-methyl- or methylaminomethylphenyl- or cyclohexadienyl- or thienylacetamide)-3[1-carboxymethyl-(or ethyl- or propyl-)-tetrazol-5-ylthiomethyl]-3-cephem-4-carboxylic acids” (Bristol-Myers Company, priority 1976, dated 1978).
# Where two headings read alike, the source gives them in different places.
# Legend:
# [1] = in vitro; type: in vitro ADME, human; details: read-out: protein bound (converted)
# [2] = tested on: Streptococcus pneumoniae; assay: Intramuscular treatment of systemically infected mice; type: in vivo; details: im, 3.5 h, read-out: PD50 /treatment
# Source text: (§1) Treatment of Systemically Infected Mice. The procedures were identical with those published previously [Leitner et al., BL-S640, a Cephalosporin With a Broad Spectrum of Antibacterial Activity: Bioavailability and Therapeutic Properties in Rodents, Antimicrob. Agents Chemother. 7:306-310, (1975)], except that:
# (§2) (a) the hog gastric mucin used in infections with Staphylococcus aureus No. 2 was purchased from American Laboratories, Inc., Omaha, Neb. (lot No. 154163) and b) that the medium used to suspend all other organisms contained 3% (rather than 4%) hog gastric mucin (type 1701W, Wilson Laboratories, Inc., Park Forest South, Ill.).
# (§3) *Animals infected with penicillinase-producing staphyloccal strains (No.
# (§4) and 3) were treated 0 and 2 hours after infection; the others were treate
# (§5) 1 and 3.5 hours after infection.
# [3] = tested on: Staphylococcus aureus; assay: as above; type: in vivo; details: im, read-out: PD50 /treatment
# Source text: as §1, §2, §3, §4, §5
# [4] = tested on: Streptococcus pyogenes; assay: as above; type: in vivo; details: im, 3.5 h, read-out: PD50 /treatment
# Source text: as §1, §2, §3, §4, §5
# [5] = tested on: β-lactamase Class IV Type a, Klebsiella pneumoniae 53; type: biochemical
# Description: (§6) Miscellaneous. Methods for determining bactericidal activity and susceptibility to cell-free β-lactamase were those previously used; Leitner et al., BL-S640, A Cephalosporin With a Broad Spectrum of Antibacterial Activity: Properties in vitro, Antimicrob. Agents Chemother.
# (§7) Susceptibility to β-lactamase. Susceptibility to enzymic hydrolysis was assessed by determining relative rates of hydrolysis by cell-free preparations of various β-lactamases (Table 6).
# [6] = target: β-lactamase Class I Type a, Enterobacter cloacae 214 (Enterobacter cloacae, UniProt P05364); type: biochemical
# Description: as §6, §7
# [7] = tested on: β-lactamase Class IV Type b, Klebsiella pneumoniae 1169; type: biochemical
# Description: as §6, §7
# [8] = target: T1, β-lactamase Class III Type a, Escherichia coli TEM (Escherichia coli, UniProt P62593); type: biochemical
# T1 construct: cell-free preparations of various β-lactamases; endogenous in cells; host or cells: Escherichia coli strain TEM
# Description: as §6, §7
# [9] = target: β-lactamase Class I Type b, Escherichia coli 719 (Escherichia coli, UniProt P00811); type: biochemical
# Description: as §6, §7
# [10] = tested on: β-lactamase Class II Type a, Proteus mirabilis 1266; type: biochemical
# Description: as §6, §7
# [11] = tested on: Proteus vulgaris; assay: Effect of inoculum size on susceptibility of Enterobacteriaceae
# [12] = tested on: Providencia stuartii; assay: Growth inhibitory activity, antibiotic dilution technique
# [13] = tested on: Listeria monocytogenes; assay: as above; details: read-out: Minimum inhibitory concentration
# [14] = tested on: Proteus rettgeri; assay: Effect of inoculum size on susceptibility of Enterobacteriaceae; details: Providencia rettgeri
# [15] = tested on: Enterobacter aerogenes; assay: Minimum growth inhibitory and bactericidal concentrations for Enterobacteriaceae; type: cell-based; details: Klebsiella aerogenes, inoculum 10^4 cells; for MBC: read-out: MBC, minimum bactericidal concentration; for MIC: read-out: MIC, Minimum growth inhibitory concentration
# Source text: (§8) Miscellaneous. Methods for determining bactericidal activity and susceptibility to cell-free β-lactamase were those previously used; Leitner et al., BL-S640, A Cephalosporin With a Broad Spectrum of Antibacterial Activity: Properties in vitro, Antimicrob. Agents Chemother. 7:298-305 (1975).
# (§9) *MIC, Minimum growth inhibitory concentration; MBC, minimum bactericidal
# (§10) concentration; expressed as micrograms per milliliter. The inoculum was […]
# [16] = tested on: Proteus rettgeri; assay: as above; type: cell-based; details: Providencia rettgeri, inoculum 10^4 cells; for MBC: read-out: MBC, minimum bactericidal concentration; for MIC: read-out: MIC, Minimum growth inhibitory concentration
# Source text: as §8, §9, §10
# [17] = tested on: Proteus mirabilis; assay: as above; type: cell-based; details: for MBC: read-out: MBC, minimum bactericidal concentration; for MIC: read-out: MIC, Minimum growth inhibitory concentration
# Source text: as §8, §9, §10
# [18] = tested on: Proteus vulgaris; assay: as above; type: cell-based; details: inoculum 10^4 cells; for MBC: read-out: MBC, minimum bactericidal concentration; for MIC: read-out: MIC, Minimum growth inhibitory concentration
# Source text: as §8, §9, §10
# [19] = tested on: Neisseria gonorrhoeae; assay: Growth inhibitory activity, antibiotic dilution technique
# [20] = tested on: Pseudomonas aeruginosa; assay: as above; details: read-out: Minimum inhibitory concentration
# [21] = Streptococcus pneumoniae strain 1, challenge 2 × 10^3 - 9 × 10^3, treated 1 and 3.5 hours after infection
# [22] = Streptococcus pneumoniae strain 2, challenge 1 × 10^4 - 3 × 10^4, treated 1 and 3.5 hours after infection
# [23] = 3.5 h, Staphylococcus aureus strain 1, challenge 2 × 10^5 - 3 × 10^5, treated 1 and 3.5 hours after infection
# [24] = Staphylococcus aureus strain 2 (penicillinase-producing), challenge 1 × 10^9, treated 0 and 2 hours after infection
# [25] = Staphylococcus aureus strain 3 (penicillinase-producing), challenge 5 × 10^8 - 7 × 10^9, treated 0 and 2 hours after infection
# [26] = Streptococcus pyogenes strain 1, challenge 2 × 10^3 -6 × 10^3, treated 1 and 3.5 hours after infection
# [27] = Streptococcus pyogenes strain 2, challenge 1 × 10^4 - 5 × 10^4, treated 1 and 3.5 hours after infection
# [28] = read-out: Minimum Inhibitory Concentration, Proteus vulgaris strain 1, A, Inoculum of 10^2 organisms
# [29] = read-out: Minimum Inhibitory Concentration, Proteus vulgaris strain 1, B, Inoculum of 10^6 organisms
# [30] = read-out: Minimum Inhibitory Concentration, Proteus vulgaris strain 2, A, Inoculum of 10^2 organisms
# [31] = read-out: Minimum Inhibitory Concentration, Proteus vulgaris strain 2, B, Inoculum of 10^6 organisms
# [32] = read-out: Minimum Inhibitory Concentration, Proteus vulgaris strain 4, A, Inoculum of 10^2 organisms
# [33] = read-out: Minimum Inhibitory Concentration, Proteus vulgaris strain 4, B, Inoculum of 10^6 organisms
# [34] = read-out: Minimum Inhibitory Concentration, Proteus rettgeri strain 1, A, Inoculum of 10^2 organisms
# [35] = read-out: Minimum Inhibitory Concentration, Proteus rettgeri strain 1, B, Inoculum of 10^6 organisms
# [36] = read-out: Minimum Inhibitory Concentration, Proteus rettgeri strain 2, A, Inoculum of 10^2 organisms
# [37] = read-out: Minimum Inhibitory Concentration, Proteus rettgeri strain 2, B, Inoculum of 10^6 organisms
# [38] = read-out: Minimum Inhibitory Concentration, Proteus rettgeri strain 3, A, Inoculum of 10^2 organisms
# [39] = read-out: Minimum Inhibitory Concentration, Proteus rettgeri strain 3, B, Inoculum of 10^6 organisms
# [40] = Enterobacter aerogenes strain 1
# [41] = Enterobacter aerogenes strain 2
# [42] = Enterobacter aerogenes strain 3
# [43] = Proteus mirabilis strain 1, inoculum 10^4 cells
# [44] = Proteus mirabilis strain 2, inoculum 10^4 cells
# [45] = Proteus mirabilis strain 3, inoculum 10^4 cells
# [46] = Proteus mirabilis strain 4, inoculum 10^4 cells
# [47] = Proteus mirabilis strain 5, inoculum 10^4 cells
# [48] = Proteus vulgaris, Proteus vulgaris strain 1
# [49] = Proteus vulgaris, Proteus vulgaris strain 2
# [50] = Proteus vulgaris, Proteus vulgaris strain 4
# T1 sequence (P62593 24-286 limits assumed): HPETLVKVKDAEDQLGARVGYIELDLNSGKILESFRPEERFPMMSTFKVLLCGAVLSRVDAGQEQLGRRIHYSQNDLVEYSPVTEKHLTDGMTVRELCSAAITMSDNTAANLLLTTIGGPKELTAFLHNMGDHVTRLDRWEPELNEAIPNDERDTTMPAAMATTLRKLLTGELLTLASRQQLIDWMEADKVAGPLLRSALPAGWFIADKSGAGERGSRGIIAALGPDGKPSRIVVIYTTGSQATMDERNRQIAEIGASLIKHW
# Sequence of β-lactamase Class I Type b, Escherichia coli 719 (P00811 20-377): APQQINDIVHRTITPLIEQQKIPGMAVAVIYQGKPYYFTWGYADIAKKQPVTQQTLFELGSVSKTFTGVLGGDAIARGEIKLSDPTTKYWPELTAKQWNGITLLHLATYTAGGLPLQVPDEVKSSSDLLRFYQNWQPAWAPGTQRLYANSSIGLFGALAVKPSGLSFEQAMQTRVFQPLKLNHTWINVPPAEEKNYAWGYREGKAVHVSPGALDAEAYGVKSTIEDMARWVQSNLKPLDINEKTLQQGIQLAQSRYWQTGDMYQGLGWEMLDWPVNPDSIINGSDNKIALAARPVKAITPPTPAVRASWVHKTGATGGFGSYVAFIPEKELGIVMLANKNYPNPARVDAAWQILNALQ
# Sequence of β-lactamase Class I Type a, Enterobacter cloacae 214 (P05364 21-381): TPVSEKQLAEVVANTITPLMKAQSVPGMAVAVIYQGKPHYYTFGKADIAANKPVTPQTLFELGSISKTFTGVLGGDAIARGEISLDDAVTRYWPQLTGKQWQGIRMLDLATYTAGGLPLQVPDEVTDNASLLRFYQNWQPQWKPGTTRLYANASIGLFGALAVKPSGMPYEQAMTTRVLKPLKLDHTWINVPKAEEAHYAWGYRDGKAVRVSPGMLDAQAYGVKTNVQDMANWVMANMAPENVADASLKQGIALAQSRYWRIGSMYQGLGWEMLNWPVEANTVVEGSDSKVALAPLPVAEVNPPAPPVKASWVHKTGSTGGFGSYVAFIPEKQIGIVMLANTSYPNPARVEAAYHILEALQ
structure (smiles),measurement,setting,value
CC(=O)OCC1=C(C(=O)O)N2C(=O)[C@@H](NC(=O)Cc3cccs3)[C@H]2SC1 [Cephalothin],fraction unbound,"[1]; human, serum",0.33
same,ED50,[2]; [21],4 mg/kg
same,ED50,[2]; [22],19 mg/kg
same,ED50,[3]; [23],0.3 mg/kg
same,ED50,[3]; [24],9.3 mg/kg
same,ED50,[3]; [25],32 mg/kg
same,ED50,[4]; [26],4.5 mg/kg
same,ED50,[4]; [27],2.7 mg/kg
same,Relative Rate of Hydrolysis (benzylpenicillin = 100),[5],8
same,Relative Rate of Hydrolysis (benzylpenicillin = 100),[6],2100
same,Relative Rate of Hydrolysis (benzylpenicillin = 100),[7],43
same,Relative Rate of Hydrolysis (benzylpenicillin = 100),[8],9
same,Relative Rate of Hydrolysis (benzylpenicillin = 100),[9],480
same,Relative Rate of Hydrolysis (benzylpenicillin = 100),[10],< 1
same,MIC,[11]; [28],1 µg/mL
same,MIC,[11]; [29],4 µg/mL
same,MIC,[11]; [30],8 µg/mL
same,MIC,[11]; [31],125 µg/mL
same,MIC,[11]; [32],16 µg/mL
same,MIC,[11]; [33],16 µg/mL
same,percent of strains inhibited,[12],negligible
same,MIC,[13],2 µg/mL
same,MIC,[14]; [34],0.25 µg/mL
same,MIC,[14]; [35],250 µg/mL
same,MIC,[14]; [36],0.25 µg/mL
same,MIC,[14]; [37],> 250 µg/mL
same,MIC,[14]; [38],32 µg/mL
same,MIC,[14]; [39],> 250 µg/mL
same,MBC,[15]; [40],250 µg/mL
same,MIC,[15]; [40],125 µg/mL
same,MBC,[15]; [41],> 250 µg/mL
same,MIC,[15]; [41],125 µg/mL
same,MBC,[15]; [42],> 250 µg/mL
same,MIC,[15]; [42],250 µg/mL
same,MBC,[16]; Proteus rettgeri strain 2,2 µg/mL
same,MIC,[16]; Proteus rettgeri strain 2,1 µg/mL
same,MBC,[16]; Proteus rettgeri strain 3,250 µg/mL
same,MIC,[16]; Proteus rettgeri strain 3,125 µg/mL
same,MBC,[17]; [43],32 µg/mL
same,MIC,[17]; [43],8 µg/mL
same,MBC,[17]; [44],32 µg/mL
same,MIC,[17]; [44],8 µg/mL
same,MBC,[17]; [45],8 µg/mL
same,MIC,[17]; [45],8 µg/mL
same,MBC,[17]; [46],8 µg/mL
same,MIC,[17]; [46],4 µg/mL
same,MBC,[17]; [47],16 µg/mL
same,MIC,[17]; [47],8 µg/mL
same,MBC,[18]; [48],2 µg/mL
same,MIC,[18]; [48],1 µg/mL
same,MBC,[18]; [49],16 µg/mL
same,MIC,[18]; [49],8 µg/mL
same,MBC,[18]; [50],16 µg/mL
same,MIC,[18]; [50],8 µg/mL
same,susceptibility of Neisseria gonorrhoeae,[19],equally susceptible
same,MIC,[20],> 125 µg/mL
NCc1ccccc1CC(=O)N[C@@H]1C(=O)N2C(C(=O)O)=C(CSc3nnnn3CC(=O)O)CS[C@H]12 [Example 1],fraction unbound,[1]; In 95% human serum,0.33
same,ED50,[2]; [21],0.52 mg/kg
same,ED50,[2]; [22],1.6 mg/kg
same,ED50,[3]; [23],0.3 mg/kg
same,ED50,[3]; [24],5.4 mg/kg
same,ED50,[3]; [25],10 mg/kg
same,ED50,[4]; [26],2.9 mg/kg
same,ED50,[4]; [27],0.93 mg/kg
same,Relative Rate of Hydrolysis (benzylpenicillin = 100),[5],6
same,Relative Rate of Hydrolysis (benzylpenicillin = 100),[6],1100
same,Relative Rate of Hydrolysis (benzylpenicillin = 100),[7],30
same,Relative Rate of Hydrolysis (benzylpenicillin = 100),[8],2
same,Relative Rate of Hydrolysis (benzylpenicillin = 100),[9],190
same,Relative Rate of Hydrolysis (benzylpenicillin = 100),[10],< 1
same,MIC,[11]; [28],1 µg/mL
same,MIC,[11]; [29],4 µg/mL
same,MIC,[11]; [30],1 µg/mL
same,MIC,[11]; [31],8 µg/mL
same,MIC,[11]; [32],1 µg/mL
same,MIC,[11]; [33],8 µg/mL
same,percent of strains inhibited,"[12]; Providencia stuartii strains, at a concentration of 16 mcg./ml.",Ninety-eight
same,MIC,[13],10.8 µg/mL
same,MIC,[14]; [34],0.13 µg/mL
same,MIC,[14]; [35],125 µg/mL
same,MIC,[14]; [36],0.13 µg/mL
same,MIC,[14]; [37],63 µg/mL
same,MIC,[14]; [38],0.25 µg/mL
same,MIC,[14]; [39],> 250 µg/mL
same,MBC,[15]; [40],2 µg/mL
same,MIC,[15]; [40],2 µg/mL
same,MBC,[15]; [41],2 µg/mL
same,MIC,[15]; [41],2 µg/mL
same,MBC,[15]; [42],16 µg/mL
same,MIC,[15]; [42],8 µg/mL
same,MBC,[16]; Proteus rettgeri strain 2,0.13 µg/mL
same,MIC,[16]; Proteus rettgeri strain 2,0.063 µg/mL
same,MBC,[16]; Proteus rettgeri strain 3,63 µg/mL
same,MIC,[16]; Proteus rettgeri strain 3,0.25 µg/mL
same,MBC,[17]; [43],1 µg/mL
same,MIC,[17]; [43],0.5 µg/mL
same,MBC,[17]; [44],0.5 µg/mL
same,MIC,[17]; [44],0.5 µg/mL
same,MBC,[17]; [45],0.5 µg/mL
same,MIC,[17]; [45],0.5 µg/mL
same,MBC,[17]; [46],0.5 µg/mL
same,MIC,[17]; [46],0.25 µg/mL
same,MBC,[17]; [47],0.5 µg/mL
same,MIC,[17]; [47],0.5 µg/mL
same,MIC,[18]; Proteus vulgaris strain 1,0.5 µg/mL
same,MBC,[18]; [48],1 µg/mL
same,MBC,[18]; [49],0.5 µg/mL
same,MIC,[18]; [49],0.5 µg/mL
same,MBC,[18]; [50],1 µg/mL
same,MIC,[18]; [50],0.5 µg/mL
same,susceptibility of Neisseria gonorrhoeae,[19],equally susceptible
same,MIC,[20],> 125 µg/mL
